What was measured:
in vitro = settings: human, Caco-2, pH 7.4
Method: 1) 50 μL and 25 mL of cell culture medium were added to each well of the Transwell insert and reservoir, respectively. And then the HTS transwell plates were incubated at 37° C., 5% CO2 for 1 hour before cell seeding.
2) Caco-2 cells were diluted to 6. 86×10^5 cells/mL with culture medium and 50 μL of cell suspension were dispensed into the filter well of the 96-well HTS Transwell plate. Cells were cultivated for 14-18 days in a cell culture incubator at 37° C., 5% CO2, 95% relative humidity. Cell culture medium was replaced every other day, beginning no later than 24 hours after initial plating.
10 mM stock solutions of test compounds were prepared in DMSO. The stock solutions of positive controls were prepared in DMSO at the concentration of 10 mM. Digoxin and propranolol were used as control compounds in this assay.
1) Medium was removed from the reservoir and each Transwell insert and replaced with prewarmed fresh culture medium.
2) Transepithelial electrical resistance (TEER) across the monolayer was measured using Millicell Epithelial Volt-Ohm measuring system (Millipore, USA).
The TEER value was calculated according to the following equation: TEER measurement (ohms) * Area of membrane (cm^2)=TEER value (ohm·cm^2) TEER value should be greater than 230 ohm·cm^2, which indicates the well-qualified Caco-2 monolayer.
1) The Caco-2 plate was removed from the incubator and washed twice with pre-warmed HMS (10 mM HEPES, pH 7.4), and then incubated at 37° C. for 30 minutes.
2) The stock solutions of control compounds and test compounds were diluted in DMSO to get 1 mM solutions and then diluted with HMS (10 mM HEPES, pH 7.4) get 5 μM working solutions. The final concentration of DMSO in the incubation system was 0.5%.
3) To determine the rate of drug transport in the apical to basolateral direction. 125 μL of 5 μM working solution of control compound and test compounds were added to the Transwell insert (apical compartment), and transfer 50 μL sample (D0 sample) immediately from the apical compartment to a new 96-well plate. Fill the wells in the receiver plate (basolateral compartment) with 235 μL of MSS (10 mM HEPES, pH 7.4).
4) To determine the rate of drug transport in the basolateral to apical direction. 285 μL of 5 μM working solution of control compound and test compounds were to the receiver plate wells (basolateral compartment), and transfer 50 μL sample (D0 sample) immediately from the basolateral compartment to a new 96-well plate. Fill the wells in the Transwell insert (apical compartment) with 75 μL of MSS (10 mM HEPES, pH 7.4). The assay was performed in duplicate.
5) The plates were incubated at 37° C. for 2 hours.
6) At the end of the incubation, 50 μL samples from donor sides (apical compartment for Ap→Bl flux, and basolateral compartment for Bl→Ap) and receiver sides (basolateral compartment for Ap→Bl flux, and apical compartment for Bl→Ap) were transferred to wells of a new 96-well plate, followed by the addition of 4 volume of cold methanol containing appropriate internal standards (IS). Samples were Vortexed for 5 minutes and then centrifuged at 3,220 g for 40 minutes. An aliquot of 100 μL of the supernatant was mixed with an appropriate volume of ultra-pure water before LC-MS/MS analysis.
7) To determine the Lucifer Yellow leakage after 2-hour transport period, stock solution of Lucifer yellow was prepared in water and diluted with HMS (10 mM HEPES, pH 7.4) to reach the final concentration of 100 μM. 100 μL of the Lucifer yellow solution was added to each Transwell insert (apical compartment), followed by filling the wells in the receiver plate (basolateral compartment) with 300 μL of HBSS (10 mM HEPES, pH 7.4). The plates were Incubated at 37° C. for 30 mins. 80 μL samples were removed directly from the apical and basolateral wells (using the basolateral access holes) and transferred to wells of new 96 wells plates.

wild type CK1δ = wild type CK1δ (Homo sapiens, UniProt P48730); assay: CK1δ kinase assay (Kinase-Glo); type: biochemical; settings: 10 μM ATP, 2 nM wild type CK1δ, 85 min at 25° C.; read-out: CK1δ inhibition (IC50)
Method: The CK1δ kinase assay was performed with a buffer (40 μL, pH 7.5) containing 50 mM Tris, 10 mM MgCl2, 1 mM dithiothreitol, 100 μg/mL BSA with 10 μM ATP, 2 nM wild type CK1δ, and 42 μM peptide substrate PLSRTLpSVASLPGL (Flotow et al., 1990) in the presence of 1 μL of a CK1δ inhibitor (e.g., a compound of the present application) or 4% DMSO (e.g., as control). The reaction mixture was incubated for 85 min at 25° C.; detection was carried out as described for the Kinase-Glo Assay (Promega). Luminescent output was measured on the Perkin Elmer Envision plate reader (PerkinElmer, Waltham, Mass.).

MDA-MB-231 cells = assay: Cell proliferation assay (crystal violet); type: cell-based; settings: various concentrations, 72 hours
Method: MDA-MB-231 cells treated with a compound of the present application (e.g., compound 1-1, 2-5, 1-14 and 3-8, respectively) were seeded at a density of 5×10^4cells/well in 12-well plate and incubated at 37° C. with 5% CO2. After 72 hours of culturing, the cells were washed with PBS, fixed in 4% formaldehyde for 15 minutes and stained with 0.1% crystal violet for 20 minutes. Cells were washed with water and the staining was extracted with 10% acetic acid for 20 minutes and absorbance was measured at 590 nm. The experiments were performed in triplicates.

[1] = test system: MDA-MB-231 cells (breast cancer cells); assay: Transwell cell migration assay; type: cell-based; settings: MDA-MB-231, 24 h; for relative migration (%) of cells: FIG. 61; for migrated cells: FIGS. 62-67
Method: MDA-MB-231 cells (breast cancer cells) were starved in 0.5% serum-DMEM for 8 hours. For the migration assay, a total of 5×10^4cells were suspended in 500 μL of serum-free DMEM medium and seeded into the upper chamber of a […] pore size insert. Then, 750 μL of DMEM (containing 10% FBS) with or without the compound of the present application was added to the lower compartment. After incubation at 37° C. for 24 h, migrated cells were washed with PBS, fixed in 4% PFA and stained for 30 min in crystal violet solution (0.1% crystal violet). […] Each insert was photographed in 3 random fields at a magnification of 40×.

[2] = Assay of intrinsic clearance in liver microsomes (mouse); type: in vitro ADME; settings: Mouse liver microsomes 0.5 mg/mL, 2 μM compound, 37° C.; for microsomal CLint at 2 μM: read-out: in vitro CLint (μL/min/mg protein); for half-life at 2 μM: read-out: in vitro t1/2
Method: (§1) 1. The master solution was prepared according to Table 11.
(§2) 2. Three separated experiments were performed as follows. a) With NADPH: 10 μL of 20 mg/mL liver microsomes and 40 μL of 10 mM NADPH were added to the incubations. The final concentrations of microsomes and NADPH were 0.5 mg/mL and 1 mM, respectively. b) Without NADPH: 10 μL of 20 mg/mL liver microsomes and 40 μL of ultra-pure H2O were added to the incubations. The final concentration of microsomes was 0.5 mg/mL. c) Heat-inactivated microsomes without NADPH: 10 μL of 20 mg/mL heat-inactivated liver microsomes and 40 μL of ultra-pure H2O were added to the incubations. The final concentration of microsomes was 0.5 mg/mL.
(§3) 3. The reaction was started with the addition of 4 μL of 200 μM test compound solution or control compound solution at the final concentration of 2 μM and carried out at 37° C.
(§4) 4. Aliquots of 50 μL were taken from the reaction solution at 0, 15, 30, 45 and 60 min. The reaction was stopped by the addition of 4 volumes of cold acetonitrile with IS (100 nM alprazolam, 200 nM labetalol, 200 nM caffeine and 2 μM ketoprofen). Samples were centrifuged at 3, 220 g for 40 minutes.
(§5) Peak areas were determined from extracted ion chromatograms. The slope value, k, was determined by linear regression of the natural logarithm of the remaining percentage of the parent drug vs. incubation time curve.
(§6) The in vitro half-life (in vitro t1/2) was determined from the slope value:
(§7) Conversion of the in vitro t1/2 (min) into the in vitro intrinsic clearance (in vitro CLint, in μL/min/mg protein) was done using the following equation (mean of duplicate determinations):
(§8) in vitro CLint=(0.693 * volume of incubation(μl))/(in vitro t1/2 * amount of proteins(mg))

[3] = Assay of intrinsic clearance in liver microsomes (human); type: in vitro ADME; settings: Human liver microsomes 0.5 mg/mL, 2 μM compound, 37° C.; for microsomal CLint at 2 μM: read-out: in vitro CLint (μL/min/mg protein); for half-life at 2 μM: read-out: in vitro t1/2
Method: as §1, §2, §3, §4, §5, §6, §7, §8

wild type CK1δ, sequence (P48730 whole entry): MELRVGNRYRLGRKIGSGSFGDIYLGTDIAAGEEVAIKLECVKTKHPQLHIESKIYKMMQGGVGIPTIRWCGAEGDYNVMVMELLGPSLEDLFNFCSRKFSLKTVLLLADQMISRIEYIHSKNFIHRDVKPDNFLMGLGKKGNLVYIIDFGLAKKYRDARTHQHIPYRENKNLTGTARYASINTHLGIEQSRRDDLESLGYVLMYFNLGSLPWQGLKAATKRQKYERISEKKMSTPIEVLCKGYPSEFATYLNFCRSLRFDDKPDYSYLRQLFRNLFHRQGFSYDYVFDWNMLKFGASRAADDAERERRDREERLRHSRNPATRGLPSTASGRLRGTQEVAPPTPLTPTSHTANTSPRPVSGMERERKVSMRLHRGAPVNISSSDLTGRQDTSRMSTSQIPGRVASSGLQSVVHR

efflux ratio at 2 h, 5 μM (in vitro) | IC50 (wild type CK1δ) [nM] | microsomal CLint at 2 μM [2] [µL/min/mg] | half-life at 2 μM [2] [min] | microsomal CLint at 2 μM [3] [µL/min/mg] | half-life at 2 μM [3] [min] | SMILES | also measured
56.5 |  |  |  |  |  | C[C@H]1O[C@@H](O[C@H]2[C@@H](O)C[C@H](O[C@H]3[C@@H](O)C[C@H](O[C@H]4CC[C@@]5(C)[C@H](CC[C@@H]6[C@@H]5C[C@@H](O)[C@]5(C)[C@@H](C7=CC(=O)OC7)CC[C@]65O)C4)O[C@@H]3C)O[C@@H]2C)C[C@H](O)[C@@H]1O [Digoxin, reference compound] | 
 | 97400 |  |  |  |  | COc1ccc(Cn2nnc(-c3ccc(F)cc3)c2-c2ccncc2)cc1 [Compound 3-8, 4-(4-(4-fluorophenyl)-1-(4-methoxybenzyl)-1H-1,2,3-triazol-5-yl)pyridine] | relative proliferation (%) of cells (MDA-MB-231 cells): affected in a concentration dependent manner
 | 7140 |  |  |  |  | Fc1ccc(-c2nn[nH]c2-c2ccncc2)cc1 [Compound 3-7, 4-(4-(4-fluorophenyl)-1H-1,2,3-triazol-5-yl)pyridine] | relative migration (%) of cells [1]: reduced; migrated cells [1]: suppressed the migration
0.51 |  |  |  |  |  | CC(C)NCC(O)COc1cccc2ccccc12 (stereo not shown) [Propranolol, reference compound] | 
 | 168 | 25.2 | 55 | 7.93 | 175 | Cn1cc(-c2ccnc3[nH]ncc23)c(-c2ccc(F)cc2)c1C#N [Compound 5-2, 3-(4-fluorophenyl)-1-methyl-4-(1H-pyrazolo[3,4-b]pyridin-4-yl)-1H-pyrrole-2-carbonitrile] | 
 | 212 |  |  |  |  | Cc1cn(-c2ccncc2)c(-c2ccc(F)cc2)c1C#N [Compound 2-2, 2-(4-fluorophenyl)-4-methyl-1-(pyridin-4-yl)-1H-pyrrole-3-carbonitrile] | relative migration (%) of cells [1]: reduced; migrated cells [1]: suppressed the migration
 | 497 |  |  |  |  | Cn1cc(-c2ccncc2)c(-c2ccc(F)c(F)c2)n1 [Compound 3-16, 4-(3-(3,4-difluorophenyl)-1-methyl-1H-pyrazol-4-yl)pyridine] | 

The next lines start with the compound.

SMILES | efflux ratio at 2 h, 5 μM (in vitro) | IC50 (wild type CK1δ) [nM] | microsomal CLint at 2 μM [2] [µL/min/mg] | half-life at 2 μM [2] [min] | microsomal CLint at 2 μM [3] [µL/min/mg] | half-life at 2 μM [3] [min] | also measured
CC(=O)N1CCn2nc(-c3ccc(F)cc3)c(-c3ccnc(N)c3)c2C1 [Compound 1-50, 1-(3-(2-aminopyridin-4-yl)-2-(4-fluorophenyl)-6,7-dihydropyrazolo[1,5-a]pyrazin-5(4H)-yl)ethan-1-one] | 3.6 | 355 |  |  |  |  | Papp A→B at 2 h, 5 μM (in vitro): 8.5 ×10⁻⁶ cm/s; Papp B→A at 2 h, 5 μM (in vitro): 30.8 ×10⁻⁶ cm/s
Nc1cc(-c2c(-c3ccc(F)cc3)nn3c2COCC3)ccn1 [Compound 1-49, 4-(2-(4-fluorophenyl)-6,7-dihydro-4H-pyrazolo[5,1-c][1,4]oxazin-3-yl)pyridin-2-amine] |  | 320 | 104 | 13.3 | 49.5 | 28 | 
Nc1nccc(-c2c(-c3ccc(F)cc3)nc3cnccn23)n1 [Compound 1-1, 4-(2-(4-fluorophenyl)imidazo[1,2-a]pyrazin-3-yl)pyrimidin-2-amine] |  |  |  |  |  |  | relative proliferation (%) of cells (MDA-MB-231 cells): affected in a concentration dependent manner; relative migration (%) of cells [1]: reduced; migrated cells [1]: suppressed the migration
Nc1cc(-c2c(-c3ccc(F)cc3)nn3c2CCC3)ccn1 [Compound 1-57, 4-(2-(4-fluorophenyl)-5,6-dihydro-4H-pyrrolo[1,2-b]pyrazol-3-yl)pyridin-2-amine] | 0.9 | 131 | 285 | 4.86 | 104 | 13.4 | Papp A→B at 2 h, 5 μM (in vitro): 19.2 ×10⁻⁶ cm/s; Papp B→A at 2 h, 5 μM (in vitro): 17.3 ×10⁻⁶ cm/s
C[C@@H]1Cn2nc(-c3ccc(F)cc3)c(-c3ccncc3)c2CO1 [Compound 1-46, (R)-2-(4-fluorophenyl)-6-methyl-3-(pyridin-4-yl)-6,7-dihydro-4H-pyrazolo[5,1-c][1,4]oxazine] |  | 273 | 44.9 | 30.9 | 60.1 | 23.1 | 
CN1CCn2nc(-c3ccc(F)cc3)c(-c3ccnc(N)c3)c2C1 [Compound 1-59, 4-(2-(4-fluorophenyl)-5-methyl-4,5,6,7-tetrahydropyrazolo[1,5-a]pyrazin-3-yl)pyridin-2-amine] | 1.05 | 39.7 | 22.2 | 62.3 | 9.7 | 143 | Papp A→B at 2 h, 5 μM (in vitro): 22.8 ×10⁻⁶ cm/s; Papp B→A at 2 h, 5 μM (in vitro): 23.9 ×10⁻⁶ cm/s

— US20230192699A1, “COMPOUNDS AS CASEIN KINASE INHIBITORS” (GRITSCIENCE BIOPHARMACEUTICALS CO., LTD., priority 2020, published 2023)
